In patent publication US20140323307A1, “MANAGEMENT METHOD AND MANAGEMENT SYSTEM FOR BIOMASS AT PLANT HARVEST” (Japan Science and Technology Agency, priority 2011, published 2014):

Test system: Arabidopsis thaliana
Settings: linolenic acid-deficient, linolenic acid-excess and wild-type strains; 2 mM GSH or 1 mM GSSG aqueous solution, 25 mL per three individuals, once a week for 5 weeks; FIG. 9
Description: Each strain of Arabidopsis thaliana tested here was grown in the following manner: seeds of three individuals of each strain of Arabidopsis thaliana were sown in a pot, and grown from when the seeds were sown to when the individuals bore seeds (grown for about 2.5 to 3 months) under the controlled condition where light intensity was approximately 100 μE·m^−2·S^−1, the light and dark cycle was set to 16 hours and 8 hours, and the temperature was 22° C. […] Above-ground parts of the obtained Arabidopsis thaliana were harvested, and dried for five or more days in a dry house having a humidity of 5% and a temperature of 20° C. After they were thoroughly dried, the total biomass of above-ground parts at harvest (dry weight of the entire above-ground parts) and seed yield (dry weight of harvested seeds) for each pot were measured. As for the linolenic acid-deficient strain (triple mutant), only the total biomass of above-ground parts at harvest was measured.

`N[C@@H](CCC(=O)N[C@@H](CS)C(=O)NCC(=O)O)C(=O)O` [glutathione] was tested, and the “biomass at harvest (total biomass of above-ground parts, dry weight; seed yield) compared to the controls” value was “significantly increased in biomass”.
